# Data as given in paper PMC11999305, “Biochemical characterization of zebrafish Paqr5b” (Biochemistry and Biophysics Reports, 2025).
# Like-named read-outs stand apart in the source and are kept apart here.
# How the values were obtained:
# [1] = target: T1, zPaqr5b (zebrafish Paqr5b) (Danio rerio, UniProt Q6DC77); experiment: competition with [3H]-progesterone, filter binding
# T1 construct: full-length CDS in pPICZalphaC; alpha-factor pre-pro signal N-terminal (major purified band 55 kDa keeps it, 45 kDa band Kex2-cut), C-terminal c-Myc and 6xHis kept; Pichia pastoris X-33; DDM-solubilized, purified by Ni-NTA and Sephacryl S-300
# T1 sequence (Q6DC77 1-347): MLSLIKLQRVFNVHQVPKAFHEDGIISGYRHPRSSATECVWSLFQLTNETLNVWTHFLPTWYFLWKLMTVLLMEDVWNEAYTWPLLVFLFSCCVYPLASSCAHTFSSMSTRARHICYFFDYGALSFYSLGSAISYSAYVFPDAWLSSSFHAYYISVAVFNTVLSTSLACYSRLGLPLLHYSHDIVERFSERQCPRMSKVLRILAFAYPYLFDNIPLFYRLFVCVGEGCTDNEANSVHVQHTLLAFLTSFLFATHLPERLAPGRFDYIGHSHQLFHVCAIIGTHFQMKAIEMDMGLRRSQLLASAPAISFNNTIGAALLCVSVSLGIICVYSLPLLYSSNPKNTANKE
# Text: competition with [3H]-progesterone, filter binding on zPaqr5b (zebrafish Paqr5b)
# [2] = target: T1, zPaqr5b (zebrafish Paqr5b); experiment: radioligand saturation, filter binding, Scatchard
Compound,IC50 [1],IC50 ([1]; read-out: IC50),Kd [2]
"CC(=O)[C@H]1CC[C@H]2[C@@H]3CC[C@H]4C[C@H](O)CC[C@]4(C)[C@H]3CC[C@]12C [ALLO, allopregnanolone]",25.2 nM,–,–
"C[C@@H](O)[C@@]1(O)CC[C@H]2[C@@H]3CCC4=CC(=O)CC[C@]4(C)[C@H]3CC[C@@]21C [DHP, 17α,20β-dihydroxy-4-pregnen-3-one]",–,19.2 nM,–
"CC(=O)[C@H]1CC[C@H]2[C@@H]3CCC4=CC(=O)CC[C@]4(C)[C@H]3CC[C@]12C [P4, progesterone]",–,5.32 nM,4.6 nM
"CC(=O)[C@H]1CC[C@H]2[C@@H]3CC=C4C[C@@H](O)CC[C@]4(C)[C@H]3CC[C@]12C [Preg, pregnenolone]",–,38.3 nM,–
